# Data published in patent US6962909B2, “Treatment of neovascularization disorders with squalimine” (Genaera Corporation, priority 1995, dated 2005).
# Key:
# [1] = tested on: S. aureus; assay: Antibiotic activity, MIC; format: cell-based; conditions: Staphylococcus aureus
# [2] = tested on: E. coli; assay: Antibiotic activity, MIC; format: cell-based; conditions: Escherichia coli
# [3] = tested on: human microvascular cells; assay: Endothelial cord formation assay; format: cell-based; as to Effect on endothelial cord formation: key: + = Inhibition of angiogenesis; − = No inhibition of angiogenesis; T = Toxic; *= cell rounding @ 10 µg/ml
# Text: Endothelial cells have the capacity in vitro to form tubular aggregates resembling capillaries in various early stages of formation. This conversion occurs under relatively specific conditions, in which essential growth factors along with an effective substratum are provided. It has been shown that both the interaction of growth factors with the endothelial cell and its attachment to a substratum activate the NHE. The activation of this exchanger is believed to be required for subsequent morphologic transformation of the endothelial cell into a multicellular tubular structure.
# To assess the effect of compounds on the cord-like structures formed by human microvascular cells when plated in the presence of VGEF (Vascular Endothelial Growth Factor) and basic fibroblast growth factor on a collagen matrix, a standard cord formation assay was used.
# [4] = tested on: vitelline capillaries of 3- to 5-day chick embryo; assay: Chick embryo vitelline capillary regression assay; format: in vivo; set-up: key to Vascular reactivity (capillary regression): + = Vascular reactivity; 0 = No vascular reactivity; +/− = Equivocal reactivity; conditions: 60 minutes
# Method: Using the chick embryo vitelline capillaries assay, compounds were tested for their ability to induce capillary regression. Each compound was applied in 0.1 ml of 15% Ficol 400 and PBS onto the embryo, and vascular regression was assessed after 60 minutes.
# The 3-day chick embryo consists of an embryonic disc from which numerous vessels emerge and return, forming a “figure 8”-shaped structure—the embryo in the center with vascular loops extending outward over both poles. […] Following a lag period of around 15 minutes, the constriction of continuity between capillary and secondary vessels, generally on the “venous” side, was observed. Continued pulsatile blood flow progressed, resulting in a “swelling” of the blind tube, followed by a pinching off of the remaining connection and formation of an enclosed vascular sac resembling a “blood island.” This process progressed until only the largest vessels remained intact.
# [5] = tested on: Stage 59-60 Xenopus tadpoles; assay: Xenopus tadpole assay; format: in vivo, Xenopus laevis; conditions: 10 μg/ml in water
# Text: A newly developed assay employing tadpoles, preferably Xenopus laevis Stages 59-60, were employed to study the effect of a compound by monitoring capillary occlusion in the tadpole's tail. […] The compounds of the invention affect the shape, viability and integrity of the embryonic tissues while not affecting the adult tissues, providing a powerful, highly specific screen. For example, substances that destroy all of the animal's epithelium, both adult and embryonic, could be regarded as toxic.
# In this assay, tadpoles are introduced into Petri dishes containing a solution of the test compound in distilled water, preferably about 100 ml. The preferred concentration of the test compound is from about 1 μg/ml to about 10 μg/ml. The volume of liquid is sufficient for the animal to swim freely and drink from the solution. Thus, the effect observed results from oral absorption and subsequent systemic distribution of the agent. If the volume of liquid is not sufficient to permit oral intake, the effects that are observed would result from absorption through the surface epithelium. Thus, this simple assay can identify if an compound has characteristics of oral availability.
# After an amount of time, typically about 60 minutes, the occlusion of blood flow through capillaries in the tadpole's tail are observed under an inverted microscope at a magnification of roughly 100×.
# The tadpole assay described above provides an advantageous way to determine the pharmacological targets of each steroid when introduced into a mammal, and to determine pharmacological categories into which synthetic compounds belong. In the assay, each of the steroids was dissolved in 100 ml of distilled water at a concentration of 10 μg/ml. Stage 59-60 Xenopus tadpoles were introduced and evaluated by light microscopy and gross observation 1 hour later.
compound,measurement,setting,value
CC(CCC(=O)O)[C@H]1CCC2C3C(CC[C@@]21C)[C@@]1(C)CC[C@H](NCCCNCCCCNCCCN)C[C@@H]1C[C@H]3O (some centres unmarked),MIC,[1],16 µg/mL
same,MIC,[2],32 to 64 µg/mL
COC(=O)CCC(C)[C@H]1CCC2C3C(CC[C@@]21C)[C@@]1(C)CC[C@H](NCCCNCCCCN)C[C@H]1C[C@H]3O (some centres unmarked),MIC,[1],64 µg/mL
same,MIC,[2],256 µg/mL
COC(=O)CCC(C)[C@H]1CCC2C3C(CC[C@@]21C)[C@@]1(C)CC[C@@H](NCCCNCCCCN)C[C@H]1C[C@H]3O (some centres unmarked),MIC,[1],4 µg/mL
same,MIC,[2],32 to 64 µg/mL
CC(C)CCCC(C)[C@H]1CCC2C3C(CC[C@@]21C)[C@@]1(C)CC[C@H](N)C[C@@H]1C[C@H]3O (some centres unmarked),MIC,[1],2 µg/mL
same,MIC,[2],> 256 µg/mL
COC(=O)CCC(C)[C@H]1CCC2C3C(CC[C@@]21C)[C@@]1(C)CC[C@H](NCCCNCCCCNCCCN)C[C@H]1C[C@H]3O (some centres unmarked),MIC,[2],64 µg/mL
COC(=O)CCC(C)[C@H]1CCC2C3C[C@@H](O)[C@H]4C[C@H](NCCN)CC[C@]4(C)C3CC[C@@]21C (some centres unmarked),MIC,[2],32 to 64 µg/mL
COC(O)CCC(C)[C@H]1CCC2C3C(CC[C@@]21C)[C@@]1(C)CC[C@H](NCCCNCCCCNCCCN)C[C@H]1C[C@H]3O (some centres unmarked),"Cord Formation, Minimum Effective Concentration",[3],10 µg/mL
CC(CCC(=O)O)[C@H]1CCC2C3C(CC[C@@]21C)[C@@]1(C)CC[C@H](NCCN)C[C@H]1C[C@H]3O (some centres unmarked),"Cord Formation, Minimum Effective Concentration",[3],>10 µg/mL
CC(C)CCCC(C)[C@H]1CCC2C3CC[C@H]4C[C@@H](NCCCNCCCCN)CC[C@]4(C)C3CC[C@@]21C (some centres unmarked) [Compound 303],Vascular reactivity (capillary regression),[4]; 1 μg applied,0
CC(CCC(=O)O)[C@H]1CCC2C3CC[C@H]4C[C@H](NCCCNCCCCN)CC[C@]4(C)C3CC[C@@]21C (some centres unmarked) [Compound 318],Vascular reactivity (capillary regression),[4]; 1 μg applied,0
CC(C)CCCC(C)[C@H]1CCC2C3C(CC[C@@]21C)[C@@]1(C)CC[C@@H](NCCCNCCCCN)C[C@@H]1C[C@H]3O (some centres unmarked) [Compound 370],Pharmacological category in tadpole assay (similarity to a reference steroid),[5],pharmacologic activity similar to that seen for FX 3
CC(CCC(=O)O)[C@H]1CCC2C3C(CC[C@@]21C)[C@@]1(C)CC[C@H](NCCCNCCCCN)C[C@@H]1C[C@H]3O (some centres unmarked) [Compound 381],Vascular reactivity (capillary regression),[4]; 1 μg applied,0
CC(CCC(=O)O)[C@H]1CCC2C3C(CC[C@@]21C)[C@@]1(C)CC[C@@H](NCCCNCCCCN)C[C@@H]1C[C@H]3O (some centres unmarked) [Compound 382],Vascular reactivity (capillary regression),[4]; 0.001 μg applied,0
same,Vascular reactivity (capillary regression),[4]; 0.01 μg applied,0
same,Vascular reactivity (capillary regression),[4]; 0.1 μg applied,0
same,Vascular reactivity (capillary regression),[4]; 1 μg applied,+
same,Vascular reactivity (capillary regression),[4]; 10 μg applied,+
COC(=O)CCC(C)[C@H]1CCC2C3C(CC[C@@]21C)[C@@]1(C)CC[C@H](NCCCNCCCCNCCCN)C[C@@H]1C[C@H]3O (some centres unmarked) [Compound 396],Vascular reactivity (capillary regression),[4]; 0.001 μg applied,0
same,Vascular reactivity (capillary regression),[4]; 0.01 μg applied,0
same,Vascular reactivity (capillary regression),[4]; 0.1 μg applied,0
same,Vascular reactivity (capillary regression),[4]; 1 μg applied,+
COC(=O)CCC(C)[C@H]1CCC2C3C(CC[C@@]21C)[C@@]1(C)CC[C@H](NCCCNCCCCNCCCN)C[C@H]1C[C@H]3O (some centres unmarked) [Compound 411],Vascular reactivity (capillary regression),[4]; 0.001 μg applied,0
same,Vascular reactivity (capillary regression),[4]; 0.01 μg applied,0
same,Vascular reactivity (capillary regression),[4]; 0.1 μg applied,0
same,Vascular reactivity (capillary regression),[4]; 1 μg applied,+/−
same,Effect on endothelial cord formation,[3]; 0.1 μg/ml,−
same,Effect on endothelial cord formation,[3]; 1.0 μg/ml,−
same,Effect on endothelial cord formation,[3]; 10.0 μg/ml,+
CC(CCC(=O)O)[C@H]1CCC2C3C(CC[C@@]21C)[C@@]1(C)CC[C@H](NCCN)C[C@H]1C[C@H]3O (some centres unmarked) [Compound 415],Vascular reactivity (capillary regression),[4]; 0.001 μg applied,0
same,Vascular reactivity (capillary regression),[4]; 0.01 μg applied,+
same,Vascular reactivity (capillary regression),[4]; 0.1 μg applied,+
same,Vascular reactivity (capillary regression),[4]; 1 μg applied,+
same,Effect on endothelial cord formation,[3]; 0.1 μg/ml,−
same,Effect on endothelial cord formation,[3]; 1.0 μg/ml,−
same,Effect on endothelial cord formation,[3]; 10.0 μg/ml,+/T
COC(=O)CCC(C)[C@H]1CCC2C3CC[C@@H]4C[C@H](NCCN)CC[C@]4(C)C3C[C@H](O)[C@@]21C (some centres unmarked) [Compound 416],Pharmacological category in tadpole assay (similarity to a reference steroid),[5],functionally similar to compound 1437
COC(=O)CCC(C)[C@H]1CCC2C3C[C@@H](O)[C@H]4C[C@H](NCCN)CC[C@]4(C)C3CC[C@@]21C (some centres unmarked) [Compound 431],Pharmacological category in tadpole assay (similarity to a reference steroid),[5],functionally similar to compound 1437
CC(CCC(=O)O)[C@H]1CCC2C3C[C@@H](O)[C@H]4C[C@@H](NCCN)CC[C@]4(C)C3CC[C@@]21C (some centres unmarked) [Compound 433],Pharmacological category in tadpole assay (similarity to a reference steroid),[5],functionally similar to compound 1437
CC(CCC(=O)O)[C@H]1CCC2C3CC[C@@H]4C[C@H](NCCCNCCCCNCCCN)CC[C@]4(C)C3C[C@H](O)[C@@]21C (some centres unmarked) [Compound 449],Effect on endothelial cord formation,[3]; 1.0 μg/ml,−
COC(=O)CCC(C)[C@H]1CCC2C3CC[C@H]4C[C@H](NCCCNCCCCNCCCN)CC[C@]4(C)C3CC[C@@]21C (some centres unmarked) [Compound 458],Pharmacological category in tadpole assay (similarity to a reference steroid),[5],pharmacologic activity similar to that seen for FX 3
CC(CCC(=O)O)[C@H]1CCC2C3C[C@@H](O)[C@H]4C[C@@H](NCCCNCCCCNCCCN)CC[C@]4(C)C3CC[C@@]21C (some centres unmarked) [Compound 467],Effect on endothelial cord formation,[3]; 1.0 μg/ml,−
same,Effect on endothelial cord formation,[3]; 10.0 μg/ml,−
CC(C)CCCC(C)[C@H]1CCC2C3C(CC[C@@]21C)[C@@]1(C)CC[C@H](N)C[C@@H]1C[C@H]3O (some centres unmarked) [Compound 1364],Vascular reactivity (capillary regression),[4]; 0.001 μg applied,0
same,Vascular reactivity (capillary regression),[4]; 0.01 μg applied,0
same,Vascular reactivity (capillary regression),[4]; 0.1 μg applied,0
same,Vascular reactivity (capillary regression),[4]; 1 μg applied,+
same,Vascular reactivity (capillary regression),[4]; 10 μg applied,+
"CO[C@@H]1[C@H](OC(=O)/C=C/C=C/C=C/C=C/C(=O)O)CC[C@]2(CO2)[C@H]1[C@@]1(C)O[C@@H]1CC=C(C)C [Fumagillin, reference compound]",Concentration that inhibits cord formation,[3],10 µg/mL
same,Effect on endothelial cord formation,[3]; 0.1 μg/ml,−
same,Effect on endothelial cord formation,[3]; 10.0 μg/ml,+
COC(=O)CCC(C)[C@H]1CCC2C3C(CC[C@@]21C)[C@@]1(C)CC[C@@H](NCCN)C[C@H]1C[C@H]3O (some centres unmarked) [drawing 70],MIC,[1],16 µg/mL
same,MIC,[2],16 µg/mL
CC(CCC(=O)O)[C@H]1CCC2C3C(CC[C@@]21C)[C@@]1(C)CC[C@@H](NCCCNCCCCNCCCN)C[C@H]1C[C@H]3O (some centres unmarked) [drawing 72],MIC,[1],8 µg/mL
CC(CCC(=O)O)[C@H]1CCC2C3C(CC[C@@]21C)[C@@]1(C)CC[C@H](NCCCNCCCCNCCCN)C[C@H]1C[C@H]3O (some centres unmarked) [drawing 73],MIC,[1],8 µg/mL
same,MIC,[2],256 µg/mL
COC(=O)CCC(C)[C@H]1CCC2C3C(CC[C@@]21C)[C@@]1(C)CC[C@@H](NCCN)C[C@H]1C[C@H]3O (some centres unmarked) [drawing 118],"Cord Formation, Minimum Effective Concentration",[3],10 µg/mL
CC(CCC(=O)O)[C@H]1CCC2C3C(CC[C@@]21C)[C@@]1(C)CC[C@@H](NCCCNCCCCNCCCN)C[C@H]1C[C@H]3O (some centres unmarked) [drawing 152],"Cord Formation, Minimum Effective Concentration",[3],>10 µg/mL
CC(CCC(=O)O)[C@H]1CCC2C3C(CC[C@@]21C)[C@@]1(C)CC[C@H](NCCCNCCCCNCCCN)C[C@H]1C[C@H]3O (some centres unmarked) [drawing 154],"Cord Formation, Minimum Effective Concentration",[3],>10 µg/mL
